Reference: ChEMBL document CHEMBL1201862, “PubChem BioAssay data set” (2004)
The source made the active and inactive calls.

Legend:
[1] = Intein inhibitors as potential Tuberculosis drugs, a cytotoxicity screen. [Related pubchem assays (depositor defined):AID2221, AID2223, AID434968, AID435010, AID449749, AID449750, AID489010]; assay type: functional
Protein RecA = molecular target: T1, Protein RecA (Mycobacterium tuberculosis, UniProt P9WHJ3); experiment: Fluorescence Cell-Free Homogeneous Dose Retest to Identify Inhibitors of RecA-Intein Splicing Activity. [Related pubchem assays (depositor defined):AID2097, AID2223, AID489010, AID492950]; assay type: functional
T1 sequence (P9WHJ3 whole entry): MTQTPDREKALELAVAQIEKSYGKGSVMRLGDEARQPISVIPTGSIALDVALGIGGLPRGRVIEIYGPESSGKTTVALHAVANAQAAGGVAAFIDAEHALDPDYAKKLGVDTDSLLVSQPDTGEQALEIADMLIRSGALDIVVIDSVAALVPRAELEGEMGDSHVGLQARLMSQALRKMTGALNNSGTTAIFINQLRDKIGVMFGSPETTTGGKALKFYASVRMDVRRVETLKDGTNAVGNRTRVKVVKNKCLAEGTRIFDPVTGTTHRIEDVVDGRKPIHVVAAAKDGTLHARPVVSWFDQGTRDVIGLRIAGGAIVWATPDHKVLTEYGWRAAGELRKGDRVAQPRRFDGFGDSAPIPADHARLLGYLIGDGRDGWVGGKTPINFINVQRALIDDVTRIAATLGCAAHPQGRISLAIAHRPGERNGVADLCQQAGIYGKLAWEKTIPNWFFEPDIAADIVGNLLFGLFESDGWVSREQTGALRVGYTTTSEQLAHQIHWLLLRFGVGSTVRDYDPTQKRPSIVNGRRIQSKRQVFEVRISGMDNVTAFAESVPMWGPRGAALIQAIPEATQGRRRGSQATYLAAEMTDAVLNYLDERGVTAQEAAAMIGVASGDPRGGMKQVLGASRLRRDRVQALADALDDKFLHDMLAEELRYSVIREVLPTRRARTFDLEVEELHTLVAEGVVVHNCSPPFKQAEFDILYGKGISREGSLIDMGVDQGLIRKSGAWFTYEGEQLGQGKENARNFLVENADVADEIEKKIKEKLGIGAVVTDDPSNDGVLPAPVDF

[2] = molecular target: T2, Histone-lysine N-methyltransferase NSD2 (Homo sapiens, UniProt O96028); assay type: biochemical
T2 sequence (O96028 whole entry): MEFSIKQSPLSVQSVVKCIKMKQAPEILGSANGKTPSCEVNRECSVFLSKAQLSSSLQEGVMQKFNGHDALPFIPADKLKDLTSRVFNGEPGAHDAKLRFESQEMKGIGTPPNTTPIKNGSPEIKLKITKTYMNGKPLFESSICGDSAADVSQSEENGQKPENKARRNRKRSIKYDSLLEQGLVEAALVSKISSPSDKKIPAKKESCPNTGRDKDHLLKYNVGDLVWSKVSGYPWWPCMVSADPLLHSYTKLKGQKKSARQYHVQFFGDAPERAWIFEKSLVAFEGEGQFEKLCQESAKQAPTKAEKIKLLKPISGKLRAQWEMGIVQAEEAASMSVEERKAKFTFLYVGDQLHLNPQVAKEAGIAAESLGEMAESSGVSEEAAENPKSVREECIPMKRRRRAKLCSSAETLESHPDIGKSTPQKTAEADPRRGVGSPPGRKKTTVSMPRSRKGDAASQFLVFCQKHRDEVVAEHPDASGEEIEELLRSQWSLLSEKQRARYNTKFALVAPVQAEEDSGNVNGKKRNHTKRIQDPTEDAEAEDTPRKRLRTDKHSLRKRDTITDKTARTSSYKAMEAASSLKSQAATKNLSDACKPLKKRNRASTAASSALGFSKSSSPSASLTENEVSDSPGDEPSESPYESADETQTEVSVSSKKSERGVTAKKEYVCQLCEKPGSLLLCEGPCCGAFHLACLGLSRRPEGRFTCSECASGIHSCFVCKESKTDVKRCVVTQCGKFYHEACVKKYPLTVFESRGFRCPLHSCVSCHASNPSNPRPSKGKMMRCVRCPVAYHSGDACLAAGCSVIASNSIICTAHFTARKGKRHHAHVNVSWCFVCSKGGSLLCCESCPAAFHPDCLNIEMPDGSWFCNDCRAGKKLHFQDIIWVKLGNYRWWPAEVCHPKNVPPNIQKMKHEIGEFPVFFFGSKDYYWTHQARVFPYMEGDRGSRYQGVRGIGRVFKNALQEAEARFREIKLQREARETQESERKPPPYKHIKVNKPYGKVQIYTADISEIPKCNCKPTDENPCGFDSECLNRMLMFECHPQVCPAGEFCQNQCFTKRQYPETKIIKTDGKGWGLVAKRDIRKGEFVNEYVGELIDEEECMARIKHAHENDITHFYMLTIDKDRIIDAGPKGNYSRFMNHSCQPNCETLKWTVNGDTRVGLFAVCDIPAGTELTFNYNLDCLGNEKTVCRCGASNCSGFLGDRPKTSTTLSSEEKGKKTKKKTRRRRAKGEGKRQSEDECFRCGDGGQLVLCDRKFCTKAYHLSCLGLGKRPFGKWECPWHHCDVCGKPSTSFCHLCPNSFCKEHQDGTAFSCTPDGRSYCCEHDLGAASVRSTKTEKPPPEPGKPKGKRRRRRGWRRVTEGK

[3] = molecular target: T3, Replicative DNA helicase DnaB (Mycobacterium tuberculosis, UniProt P9WMR3); experiment: DnaB intein splicing inhibitors, dose response, biochemical, cell-free fluorescence (AID 449749); assay type: functional
T3 sequence (P9WMR3 whole entry): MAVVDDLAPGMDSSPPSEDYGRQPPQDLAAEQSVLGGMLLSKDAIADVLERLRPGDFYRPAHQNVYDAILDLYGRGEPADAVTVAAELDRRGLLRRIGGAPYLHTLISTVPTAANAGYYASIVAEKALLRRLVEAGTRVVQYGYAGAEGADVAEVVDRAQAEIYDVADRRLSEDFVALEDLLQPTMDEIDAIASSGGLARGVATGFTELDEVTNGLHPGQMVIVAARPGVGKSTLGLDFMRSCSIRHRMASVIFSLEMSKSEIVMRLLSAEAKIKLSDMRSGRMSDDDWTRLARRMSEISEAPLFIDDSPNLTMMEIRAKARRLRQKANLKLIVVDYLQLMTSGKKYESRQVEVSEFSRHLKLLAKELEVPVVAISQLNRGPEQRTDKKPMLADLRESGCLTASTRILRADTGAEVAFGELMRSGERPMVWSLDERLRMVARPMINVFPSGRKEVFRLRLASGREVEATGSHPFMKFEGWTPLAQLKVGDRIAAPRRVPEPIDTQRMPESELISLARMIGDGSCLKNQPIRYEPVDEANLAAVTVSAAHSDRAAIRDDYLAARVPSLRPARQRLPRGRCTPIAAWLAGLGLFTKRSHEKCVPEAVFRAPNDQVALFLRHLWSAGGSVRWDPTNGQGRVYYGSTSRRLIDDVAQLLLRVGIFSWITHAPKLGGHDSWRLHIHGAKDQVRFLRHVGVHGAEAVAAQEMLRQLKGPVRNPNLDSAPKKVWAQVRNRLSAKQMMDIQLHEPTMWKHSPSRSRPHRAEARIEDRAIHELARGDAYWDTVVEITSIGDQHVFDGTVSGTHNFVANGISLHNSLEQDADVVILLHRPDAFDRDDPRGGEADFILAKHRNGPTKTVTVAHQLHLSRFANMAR

[4] = molecular target: T4, Heat shock factor protein 1 (Mus musculus, UniProt P38532); experiment: HSF1 potentiators in luciferase reporter cells, confirmation, cell-based, NIH3T3, luminescence, dose retest (AID 435004); assay type: functional;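 also: stress induced by proteasome inhibitor MG132 added 30 min after compound; luciferase reporter driven by HSF1 response element in NIH3T3 cells; actives raise luminescence as potentiators of the MG132 stress response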
T4 sequence (P38532 whole entry): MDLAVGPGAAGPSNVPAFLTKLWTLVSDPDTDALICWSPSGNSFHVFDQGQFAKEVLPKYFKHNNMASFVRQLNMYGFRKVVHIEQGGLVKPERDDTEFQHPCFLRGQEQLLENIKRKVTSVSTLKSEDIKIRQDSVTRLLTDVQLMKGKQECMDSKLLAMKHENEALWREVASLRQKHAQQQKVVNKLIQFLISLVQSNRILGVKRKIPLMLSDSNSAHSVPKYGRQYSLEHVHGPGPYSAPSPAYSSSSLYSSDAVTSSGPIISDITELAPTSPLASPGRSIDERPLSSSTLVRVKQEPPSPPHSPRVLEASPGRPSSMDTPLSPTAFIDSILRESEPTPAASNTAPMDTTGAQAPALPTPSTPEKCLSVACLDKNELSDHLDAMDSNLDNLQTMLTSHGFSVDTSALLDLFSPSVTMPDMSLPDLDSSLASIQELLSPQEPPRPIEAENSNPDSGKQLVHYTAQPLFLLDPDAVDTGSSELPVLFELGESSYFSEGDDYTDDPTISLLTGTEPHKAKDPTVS

INS1 = experiment: beta cell apoptosis inhibitors, cytokine rescue, dose response, luminescence, retest (AID 449756); assay type: functional, cell-based; details: Rattus norvegicus;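 also: cell death triggered by IL-1 beta plus TNF-alpha plus IFN-gamma mixture; protective hits raise ATP signal compared with cytokine alone wells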
Streptococcus = experiment: Group A Streptococcus viability loss, dose response, counter-screen for streptokinase expression inhibitor project, luminescence, BacTiterGlo (AID 1915); assay type: functional, organism-based;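 also: potency for reduction of bacterial viability or growth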
[5] = ZM109 Env clade C HIV-1 fusion inhibitors, dose response, HeLa effector, CEM target cells, luciferase, cherry-pick (AID 652058); assay type: functional, cell-based
[6] = CEM21 cell cytotoxicity, dose response, cytotoxicity control, plate reader, dry powder (AID 687026); assay type: functional, cell-based
[7] = NIH-3T3 fibroblast cytotoxicity, dose response, cytotoxicity control, cell-based, fluorescence, Alamar Blue, secondary assay (AID 2327); assay type: functional;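 also: NIH-3T3 mouse fibroblasts cultured with fluconazole at 8 µg/mL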
[8] = molecular target: T5, Probable nicotinate-nucleotide adenylyltransferase (Staphylococcus aureus (strain N315), UniProt P65502); assay type: functional, Staphylococcus aureus subsp. aureus N315;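 as to IC50 Mean: confirmatory dose-response retesting of NadD inhibitor hits first found in an ultra-high-throughput screen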
[9] = molecular target: T5, Probable nicotinate-nucleotide adenylyltransferase; assay type: functional, Staphylococcus aureus subsp. aureus N315; details: read-out: IC50_Mean
[10] = test system: Streptococcus sp. 'group A'; experiment: growth inhibition of control SK(-) GAS strain, dose response, counter-screen for streptokinase expression inhibitor project, luminescence, kanamycin, BacTiterGlo, confirmation (AID 1900); assay type: functional, organism-based
[11] = inhibitors of HIV Env-driven cell fusion, dose response, cherry-pick (AID 652057); assay type: functional, cell-based
[12] = HIV Env cell-cell fusion inhibitors, dose response, HIV entry, plate reader, dry powder (AID 687023); assay type: functional, cell-based
Hexokinase-1 = Hexokinase-1 (Homo sapiens, UniProt P19367); experiment: hexokinase 1 activators, dose response, selectivity assay for HKDC1 activator project, biochemical (AID 504762); assay type: functional
[13] = inhibitors of clade B AD8 Env fusion, dose response, cell-based, cherry-pick (AID 652062); assay type: functional;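 also: luciferase signal from cell-cell fusion driven by HIV-1 clade B AD8 Env; potency is for inhibitors of fusion seen as a drop in luminescence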
Hexokinase HKDC1 = molecular target: T6, Hexokinase HKDC1 (Homo sapiens, UniProt Q2TB90); experiment: HKDC1 hexokinase activators, dose response, biochemical, W721R variant (AID 504730); assay type: functional
T6 sequence (Q2TB90 whole entry): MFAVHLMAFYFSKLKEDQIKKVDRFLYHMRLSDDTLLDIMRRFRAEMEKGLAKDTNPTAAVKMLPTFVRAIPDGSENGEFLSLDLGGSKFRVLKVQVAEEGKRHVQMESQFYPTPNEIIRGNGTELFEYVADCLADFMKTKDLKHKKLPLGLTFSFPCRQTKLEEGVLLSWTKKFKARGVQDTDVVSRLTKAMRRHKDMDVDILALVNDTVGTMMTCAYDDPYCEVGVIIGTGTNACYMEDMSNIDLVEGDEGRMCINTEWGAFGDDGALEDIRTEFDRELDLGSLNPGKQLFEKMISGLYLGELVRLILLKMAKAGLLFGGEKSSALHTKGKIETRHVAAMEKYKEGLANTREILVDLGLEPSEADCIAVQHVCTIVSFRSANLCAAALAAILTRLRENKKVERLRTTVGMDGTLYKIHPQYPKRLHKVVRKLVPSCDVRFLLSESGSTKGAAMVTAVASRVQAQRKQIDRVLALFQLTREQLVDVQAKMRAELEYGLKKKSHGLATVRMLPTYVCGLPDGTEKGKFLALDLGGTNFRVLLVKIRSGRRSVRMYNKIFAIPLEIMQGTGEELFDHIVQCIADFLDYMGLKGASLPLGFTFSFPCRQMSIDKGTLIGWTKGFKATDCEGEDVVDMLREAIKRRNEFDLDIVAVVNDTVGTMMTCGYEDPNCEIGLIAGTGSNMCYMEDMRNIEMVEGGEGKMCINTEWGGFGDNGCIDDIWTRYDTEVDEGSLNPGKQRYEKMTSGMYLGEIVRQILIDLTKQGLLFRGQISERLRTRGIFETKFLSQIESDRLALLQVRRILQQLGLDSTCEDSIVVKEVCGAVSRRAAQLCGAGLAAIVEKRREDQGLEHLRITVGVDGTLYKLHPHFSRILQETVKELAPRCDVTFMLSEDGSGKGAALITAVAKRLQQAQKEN

[14] = C. albicans growth with fluconazole, confirmation, fluorescence, retest (AID 2467); assay type: functional, cell-based
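For CC50 in this document: cells exposed to compound for 72 hours before luminescence readout.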

T5 sequence (P65502 whole entry): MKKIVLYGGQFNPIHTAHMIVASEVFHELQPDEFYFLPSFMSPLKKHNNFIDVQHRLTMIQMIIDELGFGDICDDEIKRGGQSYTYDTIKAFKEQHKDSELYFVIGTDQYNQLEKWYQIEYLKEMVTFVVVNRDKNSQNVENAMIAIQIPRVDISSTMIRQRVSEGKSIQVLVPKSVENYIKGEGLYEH
Hexokinase-1, sequence (P19367 whole entry, the tested form may be a part): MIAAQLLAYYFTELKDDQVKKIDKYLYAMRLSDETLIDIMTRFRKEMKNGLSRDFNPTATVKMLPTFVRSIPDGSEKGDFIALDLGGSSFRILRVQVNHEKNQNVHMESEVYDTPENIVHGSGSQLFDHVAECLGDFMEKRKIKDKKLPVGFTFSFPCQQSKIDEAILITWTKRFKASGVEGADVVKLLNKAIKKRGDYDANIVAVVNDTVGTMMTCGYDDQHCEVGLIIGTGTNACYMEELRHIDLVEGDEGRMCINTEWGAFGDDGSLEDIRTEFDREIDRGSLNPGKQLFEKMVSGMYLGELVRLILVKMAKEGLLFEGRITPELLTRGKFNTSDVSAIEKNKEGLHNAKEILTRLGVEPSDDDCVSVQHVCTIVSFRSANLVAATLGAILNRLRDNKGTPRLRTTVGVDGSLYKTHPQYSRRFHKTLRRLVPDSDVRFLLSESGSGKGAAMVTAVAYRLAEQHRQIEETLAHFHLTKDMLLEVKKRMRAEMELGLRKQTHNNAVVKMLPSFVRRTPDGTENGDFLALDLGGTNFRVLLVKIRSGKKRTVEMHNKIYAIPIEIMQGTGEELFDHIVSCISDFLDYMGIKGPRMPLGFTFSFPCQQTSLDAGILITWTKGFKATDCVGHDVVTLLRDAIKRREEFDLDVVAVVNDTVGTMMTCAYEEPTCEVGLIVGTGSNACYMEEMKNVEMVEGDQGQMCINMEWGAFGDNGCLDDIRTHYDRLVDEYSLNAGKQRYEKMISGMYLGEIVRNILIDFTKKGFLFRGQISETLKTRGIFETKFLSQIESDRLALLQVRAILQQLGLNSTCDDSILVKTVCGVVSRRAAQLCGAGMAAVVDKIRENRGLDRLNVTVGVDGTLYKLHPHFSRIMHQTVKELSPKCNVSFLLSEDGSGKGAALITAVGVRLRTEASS

Row | SMILES | CC50 [1] | EC50 (Protein RecA) | AC50 [2] | AC50 [3] | EC50 [4] | AC50 (INS1) | EC50 (Streptococcus) | AC50 [5] | AC50 [6] | EC50 [7] | IC50 [8] | IC50 [9] | EC50 [10] | AC50 [11] | AC50 [12] | EC50 (Hexokinase-1) | AC50 [13] | EC50 (Hexokinase HKDC1) | EC50 [14]
1 | CN(C1=C(NC(=O)c2ccccc2)C(=O)c2ccccc2C1=O)C1CCS(=O)(=O)C1 (centres undefined) | 19.2 µM (active) | 0.108 µM (active) | 4.69 µM (active) | 1.7 µM (active) | 30.9 µM (active) | 3 µM (active) |  |  |  |  |  |  |  |  |  |  |  |  | 
2 | COc1ccc(-c2cc(C(=O)NNC(=S)NC(=O)c3c(-c4ccccc4)noc3C)[nH]n2)cc1 |  |  |  |  |  |  | 4.58 µM (active) | 2.61 µM (active) | > 70 µM (inactive) | 53.9 µM (active) | 6.51 µM (active) | 26.1 µM (active) | 0.263 µM (active) | 12 µM (active) | 2.1 µM (active) | > 80 µM (inactive) | 4.51 µM (active) | 3.62 µM (active) | > 38 µM (not active)
